# Test results as given in publication PMC5428521, “Identification of a Novel, Small Molecule Partial Agonist for the Cyclic AMP Sensor, EPAC1” (Scientific Reports, 2017).
# Tested on: protein kinase A (PKA)
# Experiment: PKA kinase activity assay in HEK293T cell extracts
# Type: biochemical
# Conditions: 1 mM cAMP, compound 0.1 to 100 µM
# Protocol: PKA activity was measured directly in cell extracts using the PKA Kinase Activity Assay Kit (Abcam) following the manufacturer's instructions. […] Cells were washed in ice-cold PBS containing phosphatase inhibitors, scrapped into Eppendorf tubes and centrifuged at 200 × g at 4 °C for 5 minutes. Supernatants were discarded and the cell pellet was re-suspended in Complete Lysis Buffer containing 1 mM DTT, 1 mM PMSF and protease inhibitor cocktail (Roche) and then incubated for 10 minutes on ice (on the rocking platform) followed by vortex and centrifugation at […] at 4 °C for 20 minutes. Cell extracts were then transferred to fresh Eppendorf tubes, assayed for protein content and then stored at -80 °C. […] Next, 10 μl of ATP was added to each well and incubated at 30 °C for 90 min, with gentle shaking. The reaction was stopped by aspirating the contents of each well and then 40 μl of PKA phosphospecific substrate antibody was added to each well and then the plate was covered with plastic wrap and incubated at room temperature for 60 min (with gentle shaking every 20 min). […] Fluorescence was then measured at 480/530 nm. […] PKA activity was then measured in the cell extracts using an ELISA assay according to the manufactures instructions. […]
compound,measurement,value
"Cc1ccc(S(=O)(=O)NC(=O)COc2ccc3ccccc3c2)c(C)c1 [I942, N-(2,4-dimethylbenzenesulfonyl)-2-(naphthalen-2-yloxy)acetamide]",effect on PKA activity induced by cAMP,did not significantly affect PKA activity
